According to patent publication US20140024683A1, “CHLORIDE CHANNEL AND CHLORIDE TRANSPORTER MODULATORS FOR THERAPY IN SMOOTH MUSCLE DISEASES” (priority 2011, published 2014):

Assays:
[1] = system: guinea pig tracheal rings; assay: Ex vivo airway smooth muscle force, prevention or relaxation of a contraction (Example 5); conditions: solo therapy; vs vehicle
Protocol: The chloride channel blocker NPPB and the chloride transporter blocker bumetanide were evaluated for their ability to prevent an initial contraction (n=5) (FIG. 23A) or to relax an existing contraction (n=6) (FIG. 23B).
As a proof of concept for chloride channel blockade in general, another chloride channel blocker, 5-nitro-2-(3-phenylpropylamino)-benzoic acid (NPPB) was used in an ex vivo guinea pig airway smooth muscle model.

[2] = system: human airway smooth muscle cells; assay: FLIPR potentiometric dye membrane potential assay (Examples 9, 12); assay type: cell-based; conditions: 100 μM
Protocol: To determine whether blockade of CaCCs or NKCCs induce membrane potential changes in cultured human airway smooth muscle cells, the FLIPR in vitro fluorescent dye assay (Molecular Devices) was used as described by Wafford et al. (2009). Briefly, human airway smooth muscle cells were grown to 100% confluence in 96-well black-walled plates and were washed with warmed (37° C.) normal-chloride buffer [consisting of (in mM) 130 sodium chloride, 2 CaCl2, 1 MgCl2, 10 D-glucose, and 10 HEPES, pH 7.4] four times. A stock solution (100% dye) of FLIPR blue dye (Molecular Devices) was prepared by reconstitution of 1 vial (125 mg) with 100 ml of the normal-chloride buffer (assay buffer). A 50% working stock was prepared by further diluting the reconstituted blue dye 1:1 with assay buffer and was used to load cells (90 μl/well) over 20 minutes at 37° C. All reagents were dissolved in assay buffer. Baseline fluorescence was measured for 3 minutes prior to the first control additions (assay buffer). […] The fluorescence produced by membrane potential change following solution additions was quantified after subtracting changes induced by assay buffer alone.

[3] = system: guinea pig tracheal rings; assay: Organ bath muscle force, TEA-induced contraction of guinea pig tracheal rings (Examples 1, 4, 13); conditions: 10 mM TEA; 100 μM niflumic acid
Protocol: Epithelial denuded guinea pig tracheal rings were suspended in organ baths under 1 g resting tension with continuous digital recordings of muscle force. In separate studies, guinea pig airway smooth muscle cells were enzymatically dispersed and cultured.
Human muscle tissue was acquired from excess lung airways trimmed during surgery from healthy lung transplant donors. Acquired tissue was stored overnight at […]. Airway smooth muscle contractions measured ex vivo in organ baths were performed as previously described (Gallos et al., 2008; Gallos et al., 2009, Gallos et al., 2011; Gleason et al., 2010; Yim et al., 2011; Mitzuta et al., 2008). Closed guinea pig tracheal rings or strips of human airway smooth muscle (tracheal or main stem bronchus) were suspended in organ baths, which had 95% oxygen constantly perfusing through Dulbecco's Modified Eagle Medium. Rings were cut on the cartilaginous borders of the smooth muscle. The epithelial layer was dissected under microscopic assistance. Briefly, tissues were suspended in a water-jacketed (37° C.) 2-ml organ bath (Radnoti Glass Technology, Monrovia, Calif.) and attached to a Grass FT03 force transducer (Grass Telefactor, West Warwick, R.I.) coupled to a computer via BioPac hardware and Acqknowledge 7.3.3 software (Biopac Systems, Goleta, Calif.). Kreb's-Henseleit (KH) buffer was continuously bubbled with 95% oxygen and 5% carbon dioxide and tissues were allowed to equilibrate at 1 g (guinea pig) or 1.5 g (human) isotonic force for 1 hour with fresh KH buffer changes every 15 minutes.
Following equilibration, in guinea pig experiments, the capsaicin analog N-vanillylnonanamide (10 μM final) was added to the organ baths to first activate and then deplete nonadrenergic, noncholinergic nerves. […]. In experiments with human tissue, no vanillylnonanamide pretreatment was done. To avoid bias between treatment groups, tissues were contracted to individually calculated EC50 values for acetylcholine and tissues with similar Emax values were randomly assigned to treatments within individual experiments. Following extensive KH buffer changes (8-9 times) tissues were allowed to stabilize at isotonic resting tension (about 1.0 g). To remove confounding effects of other procontractile pathways, each bath received a complement of antagonists 20 minutes prior to subsequent contractile challenge. The antagonists included pyrilamine (10 μM; H1 histamine receptor antagonist), and tetrodotoxin (1 μM; blocker of endogenous cholinergic or C-fiber neuronal effects) in guinea pig experiments or pyrilamine and 10 μM MK571 (leukotriene receptor antagonist) in human tissue experiments. […]
Airway smooth muscle contractions measured ex vivo in organ baths were performed as set forth above. […]

[4] = system: rat lung slices; assay: Airway lumen area in peripheral small airways of rat lung slices; conditions: 100 μM NFA; TEA-induced contraction
Protocol: The measurement of airway contraction of a luminal area of small lung airways using the ex vivo rat lung slice method was performed as described (Perez-Zoghbi et al., 2007). The trachea was cannulated with an intravenous catheter, and after the chest cavity was opened, the collapsed lungs were reinflated with 1.3±0.1 ml of 2% agarose (low-gelling temperature) in Sigma-Hanks' Balanced Salt solution (sHBSS), followed by the injection of 0.2±0.1 of air to flush the agarose-sHBSS out of the airways and into the distal alveolar space. Subsequently, a warm (37° C.) solution of gelatin (type A, porcine skin, 300 bloom, 6% in sHBSS) was perfused through the intrapulmonary blood vessels via the pulmonary artery by injecting about 0.3 ml into the right ventricle. The warm agar and gelatin were gelled with cold sHBSS. A single lung lobe was removed and cut into serial sections of about 130 μm thick with a vibratome at about 4° C., starting at the lung periphery. Slices were maintained in DMEM (Invitrogen) at 37° C. and 10% CO2 for up to 3 days. At 37° C., the gelatin in the blood vessel lumen dissolved, leaving the blood vessel lumen empty. Lung slices were mounted in a custom-made perfusion chamber and held in place with a small sheet of nylon mesh. A second cover glass edged with silicone grease was placed over the lung slice. Perfusion of the lung slice was performed using a gravity-fed perfusion system. The volume of the chamber was about 100 μl with a perfusion rate of about 800 μl/min. […] Digital images were recorded in time lapse (30 frames/min). The area of the bronchiole and arteriole lumen was calculated, from each image, by pixel summing using custom-written software. Experiments were performed at room temperature.

CCCCNc1cc(C(=O)O)cc(S(N)(=O)=O)c1Oc1ccccc1 [bumetanide] was tested, and the “relaxation of an existing contraction” value [1] was “effective in relaxing an existing contraction”.

O=C(O)c1cccnc1Nc1cccc(C(F)(F)F)c1 [niflumic acid] was tested, and the “membrane potential change (FLIPR)” value [2] was “hyperpolarized the cell membrane”, the “membrane potential change (FLIPR)” value ([2]; listed as NFA) was “hyperpolarizes the airway smooth muscle cell plasma membrane” and the “relaxation of TEA-induced contraction” value [3] was 82.5%. The “relaxation of TEA-contracted peripheral airway (lumen area)” value [4] was “significantly relaxes the peripheral airway contracted with TEA”.
